This data set can be described thus: Riboflavin plasma pharmacokinetics and bioavailability after IV bolus, oral solution or GRDF. The class given is in vivo, Beagle dogs. The conditions noted are these: for log-terminal slope of plasma riboflavin concentration: 100 mg riboflavin-5-phosphate, dogs n=6. As to the method:
Each dog received the drug by each of these modes, with at least one-week washout period between every phase of the study.
Following each administration blood samples (4 ml) were collected into 5 ml heparinized test tubes wrapped in aluminum foil (to protect from light), for modes (1) and (2) at times 0, 0.25, 0.5, 1, 1.5, 2, 2.5, 3, 3.5, 4, 6, 8, 11, 24 hours, and for mode (3) at times 0, 0.5, 1, 1.5, 2, […], 3, 4, 6, 9, 12, 15, 18, 21, 24, 27, 30, 33, 36 and 48 hours. Plasma was separated following centrifugation (4000 rpm for 10 minutes), and stored at −20° C. pending analysis.
Riboflavin plasma concentrations were determined by an HPLC method as follows: 100 μl trichloroacetic acid (20%) was mixed with 300 μl of a plasma sample. Following centrifugation of the mixture (13,000 rpm for 10 minutes) the supernatant was separated and incubated for 10 min at 85° C. After additional centrifugation (13,000 rpm for 10 minutes) 60 μl of the solution were injected to C18 HPLC column, with mobile phase that consisted of 15% acetonitrile in solution A (10 mmol potassium dihydrogen phosphate/L and 5 mmol hexanesulfonic acid/L, brought to a pH of 3 with orthophosphoric acid) at a flow rate of 1 ml/min. A spectrofluorometric detector set at 445 nm for excitation wavelength and 530 nm for emission wavelength detected the drug. Drug concentrations were determined with appropriate standard curves.

Turning to `Cc1cc2nc3c(=O)[nH]c(=O)nc-3n(C[C@H](O)[C@H](O)[C@H](O)CO)c2cc1C` [riboflavin], the bioavailability (Beagle, dog, plasma, 100 mg, oral administration (oral solution), dogs, read-out: absolute bioavailability of riboflavin) stood at 5.8 ± 2.2%. Further, where the note is “concluded from iv and PO administration, dogs”, the “rate of riboflavin elimination” value is 0.4 h⁻¹. In addition, the “log-terminal slope of plasma riboflavin concentration” value came out at 0.44±0.13 hr^−1 (intravenous bolus) and 0.35±0.14 hr^−1 (oral solution).

Values taken from patent publication US6685962B2, “Gastroretentive controlled release pharmaceutical dosage forms” (priority 1999, dated 2004).
